{
  "source": "ChEMBL document CHEMBL4014349",
  "about": "“Application of Structure-Based Design and Parallel Chemistry to Identify a Potent, Selective, and Brain Penetrant Phosphodiesterase 2A Inhibitor” (J Med Chem, 2017)",
  "assay_type_in_all_cases": "ADME, organism-based",
  "key": {"Plasma [1]": {"test_system": "Plasma", "assay": "Unbound concentration in rat plasma at 3 mg/kg, sc after 30 mins", "conditions": "in vivo, 0.5 h"}, "[2]": {"assay": "Drug uptake in rat plasma at 3 mg/kg, sc after 30 mins"}, "Plasma [3]": {"test_system": "Plasma", "assay": "Unbound concentration in mouse plasma at […], sc after 30 mins", "conditions": "in vivo, 0.5 h"}, "[4]": {"assay": "Drug uptake in rat brain at 3 mg/kg, sc after 30 mins", "conditions": "read-out: Drug uptake"}, "[5]": {"assay": "Ratio of unbound concentration in rat brain to plasma at 3 mg/kg, sc after 30 mins", "conditions": "brain and plasma, read-out: K(p,uu,brain)"}, "[6]": {"assay": "Drug uptake in mouse brain at […], sc after 30 mins", "conditions": "read-out: Drug uptake"}, "[7]": {"assay": "Ratio of unbound concentration in mouse brain to plasma at […], sc after 30 mins", "conditions": "brain and plasma, read-out: K(p,uu,brain)"}, "Brain [8]": {"test_system": "Brain", "assay": "Unbound concentration in mouse brain at […], sc after 30 mins", "conditions": "in vivo, 0.5 h"}, "Brain [9]": {"test_system": "Brain", "assay": "Unbound concentration in rat brain at 3 mg/kg, sc after 30 mins", "conditions": "in vivo, 0.5 h"}, "[10]": {"assay": "Drug uptake in rat cerebrospinal fluid at 3 mg/kg, sc after 30 mins", "conditions": "read-out: Drug uptake"}, "[11]": {"assay": "Drug uptake in mouse plasma at […], sc after 30 mins"}},
  "data": [
    {"smiles": "Cn1ncc(-c2nn(C)c3ncnc(N4CCC4)c23)c1-c1ccc(C(F)(F)F)cc1", "values": [
      {"measurement": "Cp(f)", "setting": "Plasma [1]", "result": 248, "unit": "nM"},
      {"measurement": "concentration at 0.5 h", "setting": "[2]", "result": 776, "unit": "nM"},
      {"measurement": "Cp(f)", "setting": "Plasma [3]", "result": 160, "unit": "nM"},
      {"measurement": "concentration at 0.5 h", "setting": "[4]", "result": 950, "unit": "nM"},
      {"measurement": "Kp uu at 0.5 h", "setting": "[5]", "result": 0.37},
      {"measurement": "concentration at 0.5 h", "setting": "[6]", "result": 452, "unit": "nM"},
      {"measurement": "Kp uu at 0.5 h", "setting": "[7]", "result": 0.27},
      {"measurement": "Drug uptake(free)", "setting": "Brain [8]", "result": 43, "unit": "nM"},
      {"measurement": "Drug uptake(free)", "setting": "Brain [9]", "result": 90.2, "unit": "nM"},
      {"measurement": "concentration at 0.5 h", "setting": "[10]", "result": 79.9, "unit": "nM"},
      {"measurement": "concentration at 0.5 h", "setting": "[11]", "result": 798, "unit": "nM"}
    ]}
  ]
}
